We go through two substances from patent US20230149452A1, “STRUCTURALLY DEFINED, BETTER TOLERATED, ORALLY ADMINSTERED, PROCESSED ARSENOLITE, A PROCESS FOR ITS PREPARATION, A PHARMACEUTICAL COMPOSITION AND USES THEREOF” (priority 2020, published 2023).

A short description of series [1]: Bulk density, ASTM D6683-19. The format is physicochemical.
For series [2] the following is noted: patients; cited from earlier work.
For series [3], the system named is chick embryo yolk sac membrane (YSM) blood vessels. Kind of series: In ovo chick embryo yolk sac membrane (YSM) angiogenesis model. It is filed as in vivo, white Leghorn breed of fowls. As to conditions: all tested concentrations, 24 hr after treatment, in comparison with control.

In turn, Arsenic tri oxide [ATO] registered a bulk density in series [1] of 1.3336 g/mL. For the same substance, in series [2], the dyspepsia is 24%, the “elevation in liver enzymes” value was 42%, the headache is reported as 29% and the herpes zoster reactivation was 13%. Further, in series [2], the menorrhagia is reported as 4% and the rash is 11%.
For the substance “Avastin: monoclonal antibody targeted against VEGF, approved by FDA for therapeutic intervention in cancer”, the “number of quaternary blood vessels” value in series [3] is on record as “significant decrease”.
